Test results as given in EP0427843B1, “SPECIFIC INHIBITOR FOR RETROVIRUS REVERSE TRANSCRIPTASE, AND ITS APPLICATION AS A MEDICAMENT” (BLOUGH, Herbert A., Dr., priority 1989, dated 1990).
“Also recorded” adds a separate entry of the source. Read-outs that look alike come from different tables or passages of the source.

Experiments:
[1] = target: T1, DNA polymérase alpha de placenta humain (Homo sapiens, UniProt P09884); test: Effect on human DNA polymerase alpha; assay type: biochemical
T1 construct: la DNA polymérase alpha de placenta humain; tissue Dr Olga Lavrik, Novosibirsk (gift); host or cells: human placenta
T1 sequence (P09884 whole entry): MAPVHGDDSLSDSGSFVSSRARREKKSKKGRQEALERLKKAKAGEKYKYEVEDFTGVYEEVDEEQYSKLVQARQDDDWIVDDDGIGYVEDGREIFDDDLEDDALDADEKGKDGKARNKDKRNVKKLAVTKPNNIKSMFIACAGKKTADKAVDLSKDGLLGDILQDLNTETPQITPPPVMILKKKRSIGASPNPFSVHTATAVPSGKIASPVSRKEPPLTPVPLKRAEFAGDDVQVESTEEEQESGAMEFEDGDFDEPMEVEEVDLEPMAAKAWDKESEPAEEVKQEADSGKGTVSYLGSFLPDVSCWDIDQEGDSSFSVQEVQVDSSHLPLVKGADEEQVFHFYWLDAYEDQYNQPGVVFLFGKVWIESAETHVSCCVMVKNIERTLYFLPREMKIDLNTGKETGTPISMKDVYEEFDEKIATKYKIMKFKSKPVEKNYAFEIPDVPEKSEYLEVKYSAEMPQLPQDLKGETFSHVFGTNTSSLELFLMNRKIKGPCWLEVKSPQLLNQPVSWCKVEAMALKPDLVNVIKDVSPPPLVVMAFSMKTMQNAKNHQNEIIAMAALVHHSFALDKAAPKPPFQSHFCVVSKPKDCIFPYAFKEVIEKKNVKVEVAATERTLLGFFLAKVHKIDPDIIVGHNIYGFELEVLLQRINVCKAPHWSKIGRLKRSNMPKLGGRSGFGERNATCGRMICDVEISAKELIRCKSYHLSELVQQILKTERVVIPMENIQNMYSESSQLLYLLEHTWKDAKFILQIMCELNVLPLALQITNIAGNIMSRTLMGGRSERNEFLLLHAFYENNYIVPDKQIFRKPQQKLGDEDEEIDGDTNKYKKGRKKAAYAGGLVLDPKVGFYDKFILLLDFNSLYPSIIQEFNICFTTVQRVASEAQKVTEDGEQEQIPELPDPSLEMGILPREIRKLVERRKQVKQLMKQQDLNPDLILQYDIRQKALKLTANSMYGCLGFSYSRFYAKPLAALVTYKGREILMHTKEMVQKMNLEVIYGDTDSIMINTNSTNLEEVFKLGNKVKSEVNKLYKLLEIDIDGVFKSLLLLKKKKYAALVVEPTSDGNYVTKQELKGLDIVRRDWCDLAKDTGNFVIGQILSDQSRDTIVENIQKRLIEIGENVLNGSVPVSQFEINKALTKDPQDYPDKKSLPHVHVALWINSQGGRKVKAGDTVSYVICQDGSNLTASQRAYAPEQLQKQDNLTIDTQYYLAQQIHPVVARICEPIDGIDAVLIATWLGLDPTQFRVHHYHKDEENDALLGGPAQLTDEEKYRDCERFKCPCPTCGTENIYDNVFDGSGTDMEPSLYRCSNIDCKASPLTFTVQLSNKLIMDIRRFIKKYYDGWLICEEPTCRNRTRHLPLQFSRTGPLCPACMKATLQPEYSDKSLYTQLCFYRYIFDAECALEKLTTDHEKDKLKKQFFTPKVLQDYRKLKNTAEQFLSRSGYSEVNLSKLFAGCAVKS
T1 sequence (Q14181 whole entry partner): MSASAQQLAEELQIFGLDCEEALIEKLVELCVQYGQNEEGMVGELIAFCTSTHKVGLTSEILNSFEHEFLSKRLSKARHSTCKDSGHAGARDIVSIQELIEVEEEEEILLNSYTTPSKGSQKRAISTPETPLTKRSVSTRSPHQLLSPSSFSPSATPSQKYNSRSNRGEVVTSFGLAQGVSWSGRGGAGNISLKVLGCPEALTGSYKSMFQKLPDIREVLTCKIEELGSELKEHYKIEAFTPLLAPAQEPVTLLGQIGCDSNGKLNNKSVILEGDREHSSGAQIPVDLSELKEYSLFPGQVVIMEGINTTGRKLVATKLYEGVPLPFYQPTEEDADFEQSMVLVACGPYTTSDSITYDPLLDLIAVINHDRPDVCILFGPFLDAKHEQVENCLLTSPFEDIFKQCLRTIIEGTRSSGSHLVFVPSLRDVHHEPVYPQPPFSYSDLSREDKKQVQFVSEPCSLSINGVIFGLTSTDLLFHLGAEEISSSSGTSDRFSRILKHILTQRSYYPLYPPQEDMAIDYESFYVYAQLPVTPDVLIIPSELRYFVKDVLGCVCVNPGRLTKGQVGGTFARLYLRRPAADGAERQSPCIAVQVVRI
T1 sequence (P49642 whole entry partner): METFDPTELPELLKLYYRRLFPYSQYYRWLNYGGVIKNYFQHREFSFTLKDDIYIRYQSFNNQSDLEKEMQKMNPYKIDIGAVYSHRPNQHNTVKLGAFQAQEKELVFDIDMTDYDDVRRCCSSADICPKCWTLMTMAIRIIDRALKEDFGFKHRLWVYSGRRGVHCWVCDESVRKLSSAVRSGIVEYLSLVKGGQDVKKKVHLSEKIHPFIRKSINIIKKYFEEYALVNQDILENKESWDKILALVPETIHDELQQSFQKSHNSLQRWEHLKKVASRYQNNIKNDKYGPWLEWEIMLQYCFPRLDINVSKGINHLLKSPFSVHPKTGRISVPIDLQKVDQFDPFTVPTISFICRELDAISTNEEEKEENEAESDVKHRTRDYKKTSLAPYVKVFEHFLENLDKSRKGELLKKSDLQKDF
T1 sequence (P49643 whole entry partner): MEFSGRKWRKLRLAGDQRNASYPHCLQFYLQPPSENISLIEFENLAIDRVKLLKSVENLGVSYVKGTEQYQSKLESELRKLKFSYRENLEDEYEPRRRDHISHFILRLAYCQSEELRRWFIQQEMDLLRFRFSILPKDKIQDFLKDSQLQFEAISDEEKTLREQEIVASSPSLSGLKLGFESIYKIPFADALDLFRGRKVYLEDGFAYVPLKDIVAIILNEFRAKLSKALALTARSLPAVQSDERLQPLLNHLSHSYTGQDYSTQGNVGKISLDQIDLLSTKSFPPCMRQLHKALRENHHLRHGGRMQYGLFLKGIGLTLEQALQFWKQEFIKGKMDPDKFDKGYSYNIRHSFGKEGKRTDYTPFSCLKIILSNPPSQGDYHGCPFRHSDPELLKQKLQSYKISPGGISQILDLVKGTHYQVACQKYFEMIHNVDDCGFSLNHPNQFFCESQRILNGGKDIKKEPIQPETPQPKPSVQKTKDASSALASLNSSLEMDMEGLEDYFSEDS

[2] = target: association enzyme-matrice (HIV1-RT / hybride primer-matrice) (Human immunodeficiency virus type 1 group M subtype B, UniProt P03366); details: enzyme 0,15 nM à 1nM; aurothioglucose 0,1 »M à 100 »M
Source text: On aussi effectué la filtration de l'enzyme et de l'hybride primeur-matrice en présence de concentration croissante de l'aurothioglucose. Les conditions expérimentales sont celles décrites précédemment.

AMV-RT = test: AMV reverse transcriptase inhibition, primer extension, PAGE and autoradiography; assay type: biochemical, virus de myéloblastose aviaire; details: for effet sur la R.T. (AMV): qualitative
Source text: (§1) Transcriptase inverse: l'enzyme active du point de vue enzymatique, purifiée, clonée, a été préparée dans Escherichia coli à l'aide de la technique précédemment décrite par Hizi A., McGill C., Hugues G., Proc. Natl. Acad. Sci. USA 85, 1218-1222 (1988). Le dosage de la R.T. a été effectuée à l'aide de matrice d'ADN (au hasard et avec des séquences HIV) et de primer(s) marqué(s) (brins d'initiation) par radioactivité. Après formation de complexes entre la matrice d'ADN et les primers, la R.T. a été ajoutée et incubée. Diverses concentrations d'inhibiteur ont été ajoutées soit avant soie après que le, ou les complexes, aient été formés. L'initiation et l'élongation de la chaîne ont été étudiées à l'aide de P.A.G.E. à 20% [Shane D.L., Goodman M.F., Echols N.A., Nucleic Acids Res. 16, 1218-1222 (1988] et les produits analysés par autoradiographie. Différentes matrices et conditions ont été utilisées pour distinguer ces fonctions. En outre, de la R.T. disponible dans le commerce provenant du virus de myéloblastose aviaire a été également utilisée.
(§2) Le dosage de l'effet des inhibiteurs sur la R.T. était le suivant: • A) On prépare un mélange réactionnel de […] contenant: • . ADN matrice 10⁻⁸M • . ADN primer 4 x 10⁻¹⁰M/ADN primer 5' [³²P] • . 2 »l de tampon HIV-RT ([10x] (500 mM Tris-HCl • . pH 7,8; 60 mM MgCl₂; 10 mM dithiothréitol; 500 mM KCl); et • . de l'eau bidistillée pendant […] à 37°C. • B) On ajoute 1 unité de HIV-RT (une unité correspond à l'activité enzymatique qui incorpore 1 nmol de [³H] TMP en produit insoluble dans l'acide en 10 mn à 37°C avec du poly(A)-(dT)₁₅ comme substrat) pendant 10 min à 37°C. • C) On ajoute un mélange de désoxy nucléotide triphosphates (dXTPs) contenant 0,25 mM de chaque dXTP pour un volume de mélange final de 20 »l pendant 5 minutes à 37°C. • D) Pour tester le ou les inhibiteurs, diverses concentrations de ces produits (sous un volume constant) sont ajoutées (selon Etape B) au mélange des dXTPs. Le mélange réactionnel est incubé à 37°C pendant […]. • E) On fait cesser la réaction par de l'EDTA 10 nM dans le formamide à 90%. • F) Des échantillons sont chauffés à 90°C pendant 5 mn et les produits séparés par électrophorèse sur gels de Polyacrylamide à 20% en présence d'urée. • G) Les variations dans l'élongation, la synthèse, etc... sont détectées par autoradiographie et testées par comparaison avec des "témoins" sans inhibiteur.

[3] = target: T2, DNA polymérase I de Escherichia coli (Escherichia coli, UniProt P00582); test: Effect on E. coli DNA polymerase I; assay type: biochemical
T2 construct: purchased BRL
T2 sequence (P00582 whole entry): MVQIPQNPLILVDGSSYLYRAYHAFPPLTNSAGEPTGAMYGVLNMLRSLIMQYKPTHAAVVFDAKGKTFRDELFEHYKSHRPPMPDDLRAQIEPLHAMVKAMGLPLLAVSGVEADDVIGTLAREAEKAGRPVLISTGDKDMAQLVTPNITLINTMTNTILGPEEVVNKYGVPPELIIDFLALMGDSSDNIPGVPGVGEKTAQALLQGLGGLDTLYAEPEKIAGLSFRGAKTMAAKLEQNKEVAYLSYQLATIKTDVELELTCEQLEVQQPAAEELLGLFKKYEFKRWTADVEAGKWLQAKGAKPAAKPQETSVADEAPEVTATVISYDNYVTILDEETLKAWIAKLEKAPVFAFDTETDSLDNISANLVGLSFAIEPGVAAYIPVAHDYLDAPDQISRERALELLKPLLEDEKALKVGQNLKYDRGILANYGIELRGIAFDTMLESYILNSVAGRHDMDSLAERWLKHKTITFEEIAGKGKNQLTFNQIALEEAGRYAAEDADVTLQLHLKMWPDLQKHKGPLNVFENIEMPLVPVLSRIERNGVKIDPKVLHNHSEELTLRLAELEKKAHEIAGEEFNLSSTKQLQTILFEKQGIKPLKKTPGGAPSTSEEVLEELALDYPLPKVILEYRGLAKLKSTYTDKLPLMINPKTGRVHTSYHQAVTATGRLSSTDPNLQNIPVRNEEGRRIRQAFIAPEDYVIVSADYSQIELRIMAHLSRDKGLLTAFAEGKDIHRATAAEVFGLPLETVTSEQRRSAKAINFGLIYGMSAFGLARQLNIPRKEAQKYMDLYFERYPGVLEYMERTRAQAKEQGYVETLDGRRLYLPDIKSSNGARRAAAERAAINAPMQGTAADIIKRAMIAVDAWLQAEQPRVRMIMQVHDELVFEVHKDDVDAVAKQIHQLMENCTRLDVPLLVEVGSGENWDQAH

HIV-RT = target: T3, HIV-RT (Human immunodeficiency virus type 1 group M subtype B, UniProt P03366); assay type: biochemical; details: for effet inhibiteur sur la HIV1-RT: qualitative, autoradiogram, aurothiopropanol 0 à 2 mM (Figure 7), AZT 0,1 »M à 1 mM (Figure 8)
T3 construct: Transcriptase inverse: l'enzyme active du point de vue enzymatique, purifiée, clonée, a été préparée dans Escherichia coli; made in house; host or cells: Escherichia coli
Source text: as §1, §2
Le mélange est incubé pendant 5 mn à 37°C. • dans le cas (c) l'enzyme, l'hybride primer-matrice et 2 des 4 désoxy-ribonucléotides sont ajoutés et incubés pendant 5 mn à 37°C.

[4] = target: T4, DNA polymérase alpha de foie de rat (Rattus norvegicus, UniProt O89042); test: Effect on rat DNA polymerase alpha; assay type: biochemical; details: partially purified enzyme; sensitive only above the value
T4 construct: la DNA polymérase alpha de foie de rat partiellement purifiée; tissue Dr A M de Recondo, Villejuif (gift); host or cells: rat liver
T4 sequence (O89042 1-1451): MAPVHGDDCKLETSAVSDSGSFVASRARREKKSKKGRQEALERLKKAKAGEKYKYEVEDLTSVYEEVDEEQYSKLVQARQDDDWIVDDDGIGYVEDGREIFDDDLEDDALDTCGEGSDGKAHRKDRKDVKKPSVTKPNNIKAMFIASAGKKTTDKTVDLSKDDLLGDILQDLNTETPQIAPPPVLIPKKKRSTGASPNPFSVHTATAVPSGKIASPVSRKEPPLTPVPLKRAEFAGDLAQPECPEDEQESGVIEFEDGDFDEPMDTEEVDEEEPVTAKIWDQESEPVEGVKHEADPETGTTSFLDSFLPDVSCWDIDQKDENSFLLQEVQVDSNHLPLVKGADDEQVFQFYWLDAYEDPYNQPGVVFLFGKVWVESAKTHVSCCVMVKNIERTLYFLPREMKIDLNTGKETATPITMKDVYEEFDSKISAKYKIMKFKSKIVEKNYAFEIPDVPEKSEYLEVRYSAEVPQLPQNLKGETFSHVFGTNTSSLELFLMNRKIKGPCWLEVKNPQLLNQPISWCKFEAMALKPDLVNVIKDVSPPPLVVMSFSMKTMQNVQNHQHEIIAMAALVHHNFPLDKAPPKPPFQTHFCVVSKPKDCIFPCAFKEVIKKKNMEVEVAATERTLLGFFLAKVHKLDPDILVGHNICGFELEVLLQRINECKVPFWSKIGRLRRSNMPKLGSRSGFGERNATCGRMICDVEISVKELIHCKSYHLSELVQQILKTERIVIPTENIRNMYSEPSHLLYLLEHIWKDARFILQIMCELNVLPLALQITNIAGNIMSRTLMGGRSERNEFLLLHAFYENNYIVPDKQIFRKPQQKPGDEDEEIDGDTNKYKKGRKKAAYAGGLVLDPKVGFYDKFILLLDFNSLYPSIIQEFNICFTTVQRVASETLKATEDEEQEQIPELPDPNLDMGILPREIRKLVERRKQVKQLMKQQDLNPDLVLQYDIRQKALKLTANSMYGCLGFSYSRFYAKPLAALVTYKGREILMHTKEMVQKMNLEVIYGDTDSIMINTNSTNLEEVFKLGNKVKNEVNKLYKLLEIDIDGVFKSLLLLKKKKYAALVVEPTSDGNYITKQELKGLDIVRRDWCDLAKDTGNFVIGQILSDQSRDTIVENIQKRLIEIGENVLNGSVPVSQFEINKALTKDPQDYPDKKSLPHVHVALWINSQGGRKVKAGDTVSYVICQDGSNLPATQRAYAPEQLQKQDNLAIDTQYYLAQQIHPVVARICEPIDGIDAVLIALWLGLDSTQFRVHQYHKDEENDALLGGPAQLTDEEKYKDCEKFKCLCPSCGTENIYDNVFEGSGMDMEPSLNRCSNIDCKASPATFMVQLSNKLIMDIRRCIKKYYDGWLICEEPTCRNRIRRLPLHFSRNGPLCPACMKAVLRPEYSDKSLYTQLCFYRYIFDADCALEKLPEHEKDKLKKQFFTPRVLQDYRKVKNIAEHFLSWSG

[5] = Cytotoxicity (cell doubling time, trypan blue exclusion); assay type: cell-based; details: human, alex and mt-4 cells; cytotoxic at concentrations exceeding the value; read-out: concentrations cytotoxiques
Source text: (§3) Il a également été montré que les composés de l'invention sont moins toxiques que leurs analogues de base, en mesurant, à l'aide du microscope photonique, le temps de duplication cellulaire et l'exclusion du bleu trypan.

cellules ALEX et MT-4 = test: as above; assay type: cell-based
Source text: as §3

[6] = system: glycosylation de gp120 ou gp41; test: Effect on viral glycoprotein synthesis (glycosylation) in infected cells; assay type: cell-based, HIV-1; details: for minimal effective concentration: Human immunodeficiency virus 1, read-out: concentration efficace sur la glycosylation
Source text: Effets de médicaments sur la synthèse de glycoprotéines: des cellules CEM ou MT-4 ont été infectées par HIV-1; 4 heures après l'infection, une moitié des cellules a été marquées avec [2³H]Man ou [6³H]GlcNAc à 2,5-5,9 »Ci. Les milieux ont été changés et de l'inhibiteur frais (potentiel) et 2,5 »Ci (ou 5 »Ci) de l'isotope approprié ont été ajoutés. Les cellules ont été lysées à trois et sept jours après l'infection et les lysats cellulaires ont été clarifiées par centrifugation à 12 000 g; qp120 et gp41 ont été l'une et l'autre isolées par immunoprécipitation sur colonnes et les produits, analysés sur gels de polyacrylamide à 12% et fluorographie [Kumarasamy R & Blough H.A., Biochem. Biophys. Res. Commun. 109, 1108-1115 (1982)]. Les virus ont été récoltés et purifiés par centrifugation à vitesse contrôlée sur gradients préformés de citrate de sodium ou métrazamide à 5-40%, et analysés de façon similaire.

Molecule: OC[C@H]1O[C@@H]([S][Au])[C@H](O)[C@@H](O)[C@@H]1O [1-aurothioglucose, 1-bêta-D-aurothioglucose]
- activité inhibitrice sur les DNA polymèrases humaines ([1]; in vitro): activité inhibitrice faible
- concentration en drogue à laquelle la polymérase est sensible ([1]; insensitive at concentrations lower than or equal to the value): > 1 mM
- association enzyme-matrice [2]: affaiblie
- effet sur l'élongation des chaînes d'ADN par l'AMV-RT (AMV-RT; Figure 5, lane 2, added after polymerisation of six nucleotides): inhibition de l'élongation de la chaîne
- concentrations nécessaires pour bloquer AMV-RT (AMV-RT; compared with HIV-RT, Figure 2): concentrations supérieures
- inhibition de la DNA-polymérase-1 d'Escherichia Coli ([3]; Figure 6, autoradiogram): inhibition
- concentration en aurothioglucose à laquelle la polymérase est sensible ([3]; sensitive above the value): > 50 µM
- inhibition en utilisant des matrices d'ARN (HIV-RT; RNA templates compared with DNA templates, Figure 3): résultats comparables
- sensibilité de l'enzyme complexée à la matrice (b) et en phase d'élongation (c) (HIV-RT; cases (b) and (c) compared): la même sensibilité
- effets combinés de la zidovudine (AZT) et de l'aurothioglucose (HIV-RT; combined with zidovudine (AZT)): additifs et qu'il existe une action synergique
- quantité efficace pour bloquer le complexe HIV-R.T.-Substrat (HIV-RT; complexe HIV-R.T.-Substrat à 40 nm, Figure 1): 3 »m
- diminution de la constante d'inhibition (Ki) (HIV-RT; free enzyme, case (a), compared with cases (b) and (c)): 33%
- activité par rapport à l'AZT triphosphate (HIV-RT; qualitative comparison): considérablement plus actif
- concentration en aurothioglucose à laquelle la polymérase est sensible [4]: > 100 µM

Molecule: Cc1cn([C@H]2C[C@H](N=[N+]=[N-])[C@@H](COP(=O)(O)OP(=O)(O)OP(=O)(O)O)O2)c(=O)[nH]c1=O [AZT phosphorylé, 3'-Azido-DTTP, reference compound]
- effet inhibiteur sur la HIV1-RT (HIV-RT): inhibition

Molecule: aurothiopropanol
- effet inhibiteur sur la HIV1-RT (HIV-RT): inhibition; also recorded: effet inhibiteur

Molecule: OC[C@H]1S[C@@H](O)[C@H](O)[C@@H](O)[C@@H]1O [5-thioglucose, 5-bêta-D-thioglucose]
- effet sur la R.T. (AMV) (AMV-RT): n'ont pas présenté d'effet
- effet inhibiteur sur la HIV1-RT (HIV-RT): n'ont pas présenté d'effet
- effet inhibiteur sur la HIV1-RT (HIV-RT; listed as 5-bêta-D-thioglucose): aucun effet
- MCC [5]: > 2 mM
- toxicité vis-à-vis des cellules (cellules ALEX et MT-4): trop toxiques
- activité à l'encontre de la glycosylation de gp120 ou gp41 [6]: actifs
- minimal effective concentration [6]: ~0.0035 µM

Molecule: OC[C@H]1O[C@@H](S)[C@H](O)[C@@H](O)[C@@H]1O [1-thioglucose, 1-bêta-D-thioglucose]
- effet sur la R.T. (AMV) (AMV-RT): n'ont pas présenté d'effet
- effet inhibiteur sur la HIV1-RT (HIV-RT): n'ont pas présenté d'effet
- effet inhibiteur sur la HIV1-RT (HIV-RT; listed as 1-bêta-D-thioglucose): aucun effet
- MCC [5]: > 2 mM
- toxicité vis-à-vis des cellules (cellules ALEX et MT-4): trop toxiques
- activité à l'encontre de la glycosylation de gp120 ou gp41 [6]: actifs
- minimal effective concentration [6]: ~0.0035 µM
